The NIST ThermoML archive (doi:10.1021/je900570e)

Assay: xn = mol fraction of the nth substance listed
Conditions: Liquid; for viscosity / speed of sound: 101 kPa; for viscosity: Capillary tube (Ostwald / Ubbelohde) method; for speed of sound: Frequency=2 MHz, Pulse-echo method; for mass density: 101.33 kPa, Vibrating tube method

N#CCc1ccccc1 [benzeneacetonitrile] + ClC(Cl)C(Cl)Cl
Conditions | mass density, 303.15 K [kg/m3] | mass density, 308.15 K [kg/m3] | mass density, 313.15 K [kg/m3] | speed of sound, 303.15 K [m/s] | speed of sound, 308.15 K [m/s] | speed of sound, 313.15 K [m/s] | viscosity, 303.15 K [mPa·s] | viscosity, 308.15 K [mPa·s] | viscosity, 313.15 K [mPa·s]
x1 = 0.0221 | 1566.5 | 1558.5 | 1551.7 | 1142 | 1125 | 1107.4 | 1.489 | 1.376 | 1.277
x1 = 0.1374 | 1497.2 | 1490.1 | 1483.5 | 1179.7 | 1166.3 | 1154.6 | 1.661 | 1.528 | 1.413
x1 = 0.2564 | 1426.9 | 1420 | 1413.8 | 1220.9 | 1209.3 | 1201.6 | 1.838 | 1.678 | 1.544
x1 = 0.3743 | 1358.8 | 1351.7 | 1345.9 | 1263.5 | 1251.5 | 1245.6 | 1.954 | 1.775 | 1.63
x1 = 0.4799 | 1297.2 | 1291.5 | 1285.9 | 1303.1 | 1289.9 | 1283.9 | 2.011 | 1.837 | 1.674
x1 = 0.5852 | 1236.4 | 1231.7 | 1226.2 | 1343.4 | 1329.5 | 1323.9 | 2.017 | 1.832 | 1.682
x1 = 0.7131 | 1164.2 | 1160.2 | 1154.9 | 1393.9 | 1381 | 1373.2 | 1.966 | 1.796 | 1.645
x1 = 0.8414 | 1093.9 | 1089.9 | 1085 | 1446.4 | 1436.5 | 1426.2 | 1.894 | 1.725 | 1.597
x1 = 0.9748 | 1022.5 | 1018.2 | 1013.5 | 1504.3 | 1497.2 | 1487.4 | 1.772 | 1.617 | 1.503
x1 = 1 | 1008.8 | 1004.1 | 999.5 | 1519.2 | 1512.9 | 1503.4 | 1.761 | 1.602 | 1.489

N#CCc1ccccc1 [benzeneacetonitrile] + ClC=C(Cl)Cl
Conditions | mass density, 303.15 K [kg/m3] | mass density, 308.15 K [kg/m3] | mass density, 313.15 K [kg/m3] | speed of sound, 303.15 K [m/s] | speed of sound, 308.15 K [m/s] | speed of sound, 313.15 K [m/s] | viscosity, 303.15 K [mPa·s] | viscosity, 308.15 K [mPa·s] | viscosity, 313.15 K [mPa·s]
x1 = 0.0195 | 1437 | 1428.5 | 1420 | 1024.6 | 1004.9 | 992.5 | 0.5201 | 0.486 | 0.4908
x1 = 0.119 | 1383.8 | 1377.2 | 1369.5 | 1073.5 | 1057.5 | 1045.8 | 0.5905 | 0.553 | 0.5292
x1 = 0.2263 | 1329.5 | 1323.9 | 1316.9 | 1128.2 | 1114.1 | 1102.9 | 0.6901 | 0.6417 | 0.6092
x1 = 0.3478 | 1271.9 | 1266.3 | 1260.1 | 1191 | 1179.2 | 1169.9 | 0.82 | 0.7558 | 0.715
x1 = 0.4396 | 1230.2 | 1225 | 1219.2 | 1238.9 | 1228.9 | 1221.9 | 0.9316 | 0.8529 | 0.7976
x1 = 0.5443 | 1184.5 | 1179.6 | 1174.2 | 1293.3 | 1284.6 | 1279.3 | 1.066 | 0.9721 | 0.9137
x1 = 0.6782 | 1128.8 | 1124.7 | 1119.5 | 1364.1 | 1356.5 | 1351 | 1.248 | 1.147 | 1.075
x1 = 0.819 | 1074.1 | 1070.3 | 1064.9 | 1435.8 | 1428.4 | 1425 | 1.456 | 1.339 | 1.248
x1 = 0.9692 | 1019.7 | 1015.3 | 1010.2 | 1504.1 | 1502.7 | 1499.2 | 1.698 | 1.546 | 1.439
x1 = 1 | 1008.8 | 1004.1 | 999.5 | 1519.2 | 1512.9 | 1503.4 | 1.761 | 1.602 | 1.489

N#CCc1ccccc1 [benzeneacetonitrile] + ClCCCl
Conditions | mass density, 303.15 K [kg/m3] | mass density, 308.15 K [kg/m3] | mass density, 313.15 K [kg/m3] | speed of sound, 303.15 K [m/s] | speed of sound, 308.15 K [m/s] | speed of sound, 313.15 K [m/s] | viscosity, 303.15 K [mPa·s] | viscosity, 308.15 K [mPa·s] | viscosity, 313.15 K [mPa·s]
x1 = 0.0165 | 1233.5 | 1225.3 | 1218.7 | 1182.2 | 1171.9 | 1161 | 0.7352 | 0.6821 | 0.6456
x1 = 0.1059 | 1205.5 | 1198.9 | 1191.5 | 1221.2 | 1211.5 | 1200.5 | 0.8165 | 0.7512 | 0.708
x1 = 0.2041 | 1177.1 | 1171 | 1163.5 | 1262.4 | 1252.3 | 1243.7 | 0.9029 | 0.8313 | 0.7877
x1 = 0.3088 | 1149.2 | 1143.5 | 1136.1 | 1304.2 | 1293.6 | 1285.3 | 1.003 | 0.9258 | 0.8746
x1 = 0.4073 | 1124.8 | 1119.4 | 1111.8 | 1339.5 | 1330.8 | 1320.8 | 1.103 | 1.017 | 0.9576
x1 = 0.5122 | 1100.7 | 1095.6 | 1087.6 | 1374.8 | 1367.5 | 1355.9 | 1.213 | 1.117 | 1.048
x1 = 0.648 | 1072 | 1067.2 | 1058.8 | 1418.6 | 1411.8 | 1399.9 | 1.365 | 1.248 | 1.165
x1 = 0.8003 | 1042.8 | 1038.2 | 1029.5 | 1465.2 | 1458.9 | 1447.6 | 1.536 | 1.398 | 1.299
x1 = 0.9705 | 1013.6 | 1008.8 | 999.9 | 1512.6 | 1505.4 | 1499.1 | 1.725 | 1.568 | 1.456
x1 = 1 | 1008.8 | 1004.1 | 999.5 | 1519.2 | 1512.9 | 1503.4 | 1.761 | 1.602 | 1.489
